Laboratory results: US10912297B2, “Phenoxyhalogenphenylamidines and the use thereof as fungicides” (priority 2015, dated 2021)
Like-named read-outs stand apart in the source and are kept apart here.

Experiments:
[1] = Log P by HPLC on reversed phase columns (EEC directive 79/831 Annex V.A8); format: physicochemical; settings: reversed phase HPLC column, LC-UV
Experimental: Measurement of Log P values was performed according to EEC directive 79/831 Annex V.A8 by HPLC (High Performance Liquid Chromatography) on reversed phase columns with the following methods: • ^[a] Log P value is determined by measurement of LC-UV, in an acidic range, with 0.1% formic acid in water and acetonitrile as eluent (linear gradient from 10% acetonitrile to 95% acetonitrile). • ^[b] Log P value is determined by measurement of LC-UV, in a neutral range, with 0.001 molar ammonium acetate solution in water and acetonitrile as eluent (linear gradient from 10% acetonitrile to 95% acetonitrile). […] Lambda-max-values were determined using UV-spectra from 200 nm to 400 nm and the peak values of the chromatographic signals.

[2] = tested on: soy bean plants; assay: Plant compatibility test using soy bean plants; format: in vivo; settings: soy bean young plants sprayed at 500 ppm, evaluated 6 days after application; 0% no damages, 100% totally damaged
Experimental: [table] To produce a suitable preparation of active compound, 1 part by weight of active compound is mixed with the stated amounts of solvent and emulsifier, and the concentrate is diluted with water to the desired concentration. Young plants are sprayed with the preparation of active compound at the stated application rate. The plants are then placed in a greenhouse at approximately 21° C. and a relative atmospheric humidity of approximately 80%. The test is evaluated 6 days after application and comprises plant damages like leaf deformation, chlorosis, necrosis, shoot damage or stunting. 0% means no damages are observed, while 100% means that the plants are totally damaged.

[3] = Photolysis stability test; format: physicochemical; settings: dried film in MTP, irradiated at 30° C. and 480 W/m^2 (SUNTEST), first order degradation assumed
Experimental: The stability towards photolysis of the phenylamidines described in the prior art is good but an improved stability towards photolysis may be an advantage as it could offer a longer lasting efficacy when applied to plants by foliar application. The improved stability towards photolysis was proven by a […] stability test as described below: To produce a suitable preparation of active compound for the photolysis stability test, a 1000 ppm stock solution (1 mg/mL) of active compound in acetonitrile is prepared. Aliquots of […] of this stock solution are pipetted in three wells of a Bio-one microtiter plate (MTP) UVStar 96 (Fa. Greiner, Art. No. 655801). The MTP is dried overnight in the dark and then irradiated at 30° C. and 480 W/m^2 with a UV irradiation device SUNTEST XLS+ or SUNTEST CPS (Fa. Atlas). The amount A of the active compound is analyzed by HPLC (UV-peak areas at 210 nm) at five points in time t: 0 h, 2 h, 4 h, 6 h, 24 h by using the following method: 200 μL acetonitrile is added in the respective well of the MTP and the MTP is sealed with a Bio-one sealing foil, viewseal 80/140 mm (Fa. Greiner, Art. No. 676070). The MTPs are sonicated for 3 minutes and analysed by HPLC. The half-life time (T1/2) of each active compound is calculated via linear regression by using the following equations (first order degradation assumed): […]

[4] = Hydrolysis stability test in homogeneous aqueous solution; format: physicochemical; settings: 50° C., 24 hours, first order degradation assumed
Experimental: To produce a suitable preparation of active compound for the hydrolysis stability test, a 1000 ppm stock solution (1 mg/mL) of active compound in acetonitrile is prepared. Three aliquots of […] are pipetted into HPLC vials and diluted with 750 μL acetonitrile. In each vial 850 μL of the appropriate buffer solution (pH4, pH7 and pH9, CertiPUR, Fa. Merck) is added. The buffer containing HPLC vials are incubated in a heated sample tray at 50° C. for 24 hours. The amount A of the active compound is analyzed by HPLC (UV-peak areas at 210 nm) at eight points in time t: 0 min, 140 min, 350 min, 560 min, 770 min, 980 min, 1190 min, 1400 min. The half-life time (T1/2) of each active compound is calculated via linear regression by using the following equations (first order degradation assumed): [formula] [formula]

[5] = acidic range, 0.1% formic acid in water and acetonitrile as eluent, read-out: LogP [a]
[6] = neutral range, 0.001 molar ammonium acetate solution in water and acetonitrile as eluent, read-out: LogP [b]

SMILES	chromatographic logP [1, 5]	chromatographic logP [1, 6]	half-life [3] [h]	half-life at 59 µg/mL ([4]; buffer pH 7/acetonitrile, read-out: T1/2 (pH 7) (converted)) [h]	half-life at 59 µg/mL ([4]; buffer pH 9/acetonitrile, read-out: T1/2 (pH 9) (converted)) [h]	Necrosis in % [2] [%]
Cc1cc([N+](=O)[O-])c(Br)cc1Oc1ccccc1 [VI-02, 1-bromo-4-methyl-2-nitro-5-phenoxybenzene]	4.51					
CCN(C)/C=N/c1cc(C)c(Oc2ccccc2)cc1C [Compound no. 1 known from WO2008/110313, reference compound]						90
Cc1cc(N)c(Br)cc1Oc1ccccc1 [VIII-02, 2-bromo-5-methyl-4-phenoxyaniline]	3.66	3.65				

More lines, main results first:

chromatographic logP [1, 5]	chromatographic logP [1, 6]	half-life [3] [h]	half-life at 59 µg/mL ([4]; buffer pH 7/acetonitrile, read-out: T1/2 (pH 7) (converted)) [h]	half-life at 59 µg/mL ([4]; buffer pH 9/acetonitrile, read-out: T1/2 (pH 9) (converted)) [h]	SMILES	Necrosis in % [2] [%]
1.61	4.67				CCN(C)/C=N/c1cc(C)c(Oc2ccccc2)cc1Br [Example I-02, N′-(2-bromo-5-methyl-4-phenoxyphenyl)-N-ethyl-N-methylimidoformamide]	10
1.55	3.97				CCN(C)C=Nc1cc(C)c(Oc2ccccc2)cc1F [Example I-03, N-ethyl-N′-(2-fluoro-5-methyl-4-phenoxyphenyl)-N-methylimidoformamide]	
1.6		> 200	45	40	CCN(C)/C=N/c1cc(C)c(Oc2ccccc2)cc1Cl [Example I-01, N′-(2-chloro-5-methyl-4-phenoxyphenyl)-N-ethyl-N-methylimidoformamide]	50
